Measurements reported in PubChem BioAssay (NCI).
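The concentration for 50% growth inhibition is given as GI50. TGI marks complete inhibition of growth.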

How the values were obtained:
Assay in all cases: NCI-60 cell line screen, 384-well format
HS 578T breast = test system: HS 578T breast
MDA-MB-468 breast = test system: MDA-MB-468 breast
SNB-75 CNS = test system: SNB-75 CNS
NCI-H460 NSCLC = test system: NCI-H460 NSCLC
HCT-15 colon = test system: HCT-15 colon
M14 melanoma = test system: M14 melanoma
U251 glioblastoma = test system: U251 glioblastoma
BT-549 breast = test system: BT-549 breast
EKVX NSCLC = test system: EKVX NSCLC
786-0 renal = test system: 786-0 renal
NCI/ADR-RES ovarian = test system: NCI/ADR-RES ovarian
A498 renal = test system: A498 renal
IGROV1 ovarian = test system: IGROV1 ovarian
TK-10 renal = test system: TK-10 renal
A549 NSCLC = test system: A549 NSCLC
UO-31 renal = test system: UO-31 renal
SW-620 colon = test system: SW-620 colon
PC-3 prostate = test system: PC-3 prostate
HL-60(TB) leukemia = test system: HL-60(TB) leukemia
OVCAR-8 ovarian = test system: OVCAR-8 ovarian
NCI-H226 lung = test system: NCI-H226 lung
ACHN renal = test system: ACHN renal
SN12C renal = test system: SN12C renal
SR leukemia = test system: SR leukemia
SF-295 CNS = test system: SF-295 CNS
SF-539 CNS = test system: SF-539 CNS
MOLT-4 leukemia = test system: MOLT-4 leukemia
RXF 393 renal = test system: RXF 393 renal
CAKI-1 renal = test system: CAKI-1 renal

Question: `O=C(NCC(F)(F)F)Nc1cccc(-c2cnc3cc(-c4ccc(F)cc4)ccn23)c1` was tested. Which GI50 (HS 578T breast) did it give?
Answer: 655 nM

Question: What about the TGI (HS 578T breast) of the same compound?
Answer: 2250 nM

Question: What about the GI50 (MDA-MB-468 breast) of the same compound?
Answer: 250 nM

Question: And the TGI (MDA-MB-468 breast)?
Answer: 568 nM

Question: And the GI50 (SNB-75 CNS)?
Answer: 376 nM

Question: What about the TGI (SNB-75 CNS) of the same compound?
Answer: 2090 nM

Question: And the GI50 (NCI-H460 NSCLC)?
Answer: 408 nM

Question: And the TGI (NCI-H460 NSCLC)?
Answer: 10400 nM

Question: And the GI50 (HCT-15 colon)?
Answer: 358 nM

Question: And the TGI (HCT-15 colon)?
Answer: 1610 nM

Question: What about the GI50 (M14 melanoma) of the same compound?
Answer: 569 nM

Question: And the TGI (M14 melanoma)?
Answer: 5670 nM

Question: And the GI50 (U251 glioblastoma)?
Answer: 1390 nM

Question: And the TGI (U251 glioblastoma)?
Answer: 12200 nM

Question: What about the GI50 (BT-549 breast) of the same compound?
Answer: 324 nM

Question: And the TGI (BT-549 breast)?
Answer: 2130 nM

Question: And the GI50 (EKVX NSCLC)?
Answer: 1900 nM

Question: And the TGI (EKVX NSCLC)?
Answer: 16800 nM

Question: What about the GI50 (786-0 renal) of the same compound?
Answer: 1080 nM

Question: What about the TGI (786-0 renal) of the same compound?
Answer: 5810 nM

Question: And the GI50 (NCI/ADR-RES ovarian)?
Answer: 1510 nM

Question: And the TGI (NCI/ADR-RES ovarian)?
Answer: 3730 nM

Question: And the GI50 (A498 renal)?
Answer: 769 nM

Question: And the TGI (A498 renal)?
Answer: 10300 nM

Question: And the GI50 (IGROV1 ovarian)?
Answer: 1400 nM

Question: And the TGI (IGROV1 ovarian)?
Answer: 10500 nM

Question: And the GI50 (TK-10 renal)?
Answer: 2210 nM

Question: What about the TGI (TK-10 renal) of the same compound?
Answer: 13100 nM

Question: And the GI50 (A549 NSCLC)?
Answer: 1080 nM

Question: What about the TGI (A549 NSCLC) of the same compound?
Answer: 12900 nM

Question: And the GI50 (UO-31 renal)?
Answer: 4680 nM

Question: And the TGI (UO-31 renal)?
Answer: 19500 nM

Question: What about the GI50 (SW-620 colon) of the same compound?
Answer: 433 nM

Question: And the TGI (SW-620 colon)?
Answer: 10500 nM

Question: And the GI50 (PC-3 prostate)?
Answer: 2300 nM

Question: And the TGI (PC-3 prostate)?
Answer: 10800 nM

Question: And the GI50 (HL-60(TB) leukemia)?
Answer: 321 nM

Question: What about the TGI (HL-60(TB) leukemia) of the same compound?
Answer: 853 nM

Question: And the GI50 (OVCAR-8 ovarian)?
Answer: 2480 nM

Question: And the TGI (OVCAR-8 ovarian)?
Answer: 12100 nM

Question: And the GI50 (NCI-H226 lung)?
Answer: 1030 nM

Question: And the TGI (NCI-H226 lung)?
Answer: 8570 nM

Question: And the GI50 (ACHN renal)?
Answer: 2790 nM

Question: What about the TGI (ACHN renal) of the same compound?
Answer: 12900 nM

Question: What about the GI50 (SN12C renal) of the same compound?
Answer: 756 nM

Question: What about the TGI (SN12C renal) of the same compound?
Answer: 4530 nM

Question: And the GI50 (SR leukemia)?
Answer: 148 nM

Question: And the TGI (SR leukemia)?
Answer: 309 nM

Question: And the GI50 (SF-295 CNS)?
Answer: 1130 nM

Question: And the TGI (SF-295 CNS)?
Answer: 4390 nM

Question: And the GI50 (SF-539 CNS)?
Answer: 832 nM

Question: And the TGI (SF-539 CNS)?
Answer: 2540 nM

Question: What about the GI50 (MOLT-4 leukemia) of the same compound?
Answer: 219 nM

Question: What about the TGI (MOLT-4 leukemia) of the same compound?
Answer: 391 nM

Question: And the GI50 (RXF 393 renal)?
Answer: 1490 nM

Question: What about the TGI (RXF 393 renal) of the same compound?
Answer: 7290 nM

Question: What about the GI50 (CAKI-1 renal) of the same compound?
Answer: 1110 nM

Question: And the TGI (CAKI-1 renal)?
Answer: 12500 nM
